Results published in paper PMC10616469, “Pharmacokinetics and tissue distribution of four major bioactive components of Cynanchum auriculatum extract: a UPLC–MS/MS study in normal and functional dyspepsia rats” (Frontiers in Pharmacology, 2023).
Like-named read-outs stand apart in the source and are kept apart here.

Key:
[1] = PK study: plasma pharmacokinetics after oral administration of CA extract in normal and FD rats (UPLC-MS/MS); format: in vivo; settings: Sprague-Dawley, rat, oral CA extract (0.10 g/mL solution, 10 mL/kg); for AUC(0-inf) / AUC(0-t) / CL/F / Cmax / half-life: n = 6; for Tmax: n = 6, read-out: Tmax; for Vd/F: n = 6, read-out: Vz/F
Procedure: For PK experiments, an appropriate amount of the CA extract was weighed to prepare a 0.10 g/mL solution using physiological saline. Briefly, 12 SD rats were randomly assigned to normal and FD groups and were orally administered the prepared CA sample (10 mL/kg body weight). For assessment, 0.3 mL of blood was collected into heparinized tubes via the caudal vein before dosing and at 2, 5, 10, 15, 20, 30, and 45 min, and 1, 2, 4, 8, 12, 24, and 48 h after administration. Blood samples were then immediately centrifuged at 4,500 rpm for 15 min, and the obtained plasma samples were stored at −20°C until determination.
The PK parameters were analyzed using the non–compartment analysis using the WinNonLin 8.2 software (Phoenix, United States). All the data were expressed as mean ± standard deviation (SD). The normal and FD groups were compared using independent samples t–test in SPSS 22.0. Results with p values < 0.05 were considered statistically significant.

[2] = Stability of the four compounds in plasma samples (QC samples); settings: n = 5
Procedure: In a 1.5 mL EP tube, 100 μL of plasma sample was mixed with 10 µL 1% formic acid–water, 10 μL IS (0.2011 μg/mL), and 400 μL acetonitrile. The mixture was then vortexed for 5 min, followed by sonication for 10 min at 40 kHz and centrifugation at 14,000 rpm for 10 min. The supernatant obtained was transferred to another tube and evaporated to dryness under a nitrogen vacuum at 37°C. The residue obtained was reconstituted with 150 μL of the initial mobile phase, and the centrifugation process was repeated. The supernatant thus obtained was then used for further analysis.
Similarly, QC samples of three concentrations (low, medium, and high) were prepared.
The specificity of the method was evaluated by comparing the retention times of analytes and IS in the blank matrix, blank matrix spiked with the four analytes and IS, and the samples after oral administration of CA extract. Calibration curves were constructed by comparing the ratio of peak areas of the four analytes to that of IS versus the concentration of the four analytes. Calibration curves were fitted via linear weighted (1/X ^ 2 ) least–squares regression. The intra–and inter–day precision and accuracy were estimated by analyzing QC samples at different concentrations on the same day and three consecutive validation days, respectively. The extraction recovery was evaluated by determining the peak area of analytes in QC samples compared with that in extracted matrix samples. The relative standard deviation of the extraction recovery of analytes at each level was retained at ≤20.0%. The following parameters of stability were assessed: short–term stability (24 h at room temperature), processed sample stability (24 h at 4°C), freeze–thaw stability (3 cycles), and auto–sampler stability (6 h at room temperature). QC samples of different concentrations were used for stability analysis.

[3] = Tissue distribution study after oral administration of CA extract in normal and FD rats
Procedure: UPLC–MS/MS analysis was conducted using the ACQUITY UPLC system (Waters Corp., Milford, MA, United States) equipped with a Xevo–TQ mass spectrometer (Waters Corp., Milford, MA, United States) with an electrospray ionization (ESI) interface and triple quadrupole mass analyzer.
The ACQUITY UPLC® BEH C18 column (2.1 mm × 50 mm, 1.7 μm, Waters, United States) was used for separation and was maintained at 40°C. The mobile phase consisted of 0.1% formic acid in water (A) and 0.1% formic acid–acetonitrile (B) for PK study and 0.2% formic acid in water (A) and 0.2% formic acid–acetonitrile (B) for tissue distribution study. The mobile phase was eluted as a gradient, as follows: 0–0.5 min, 10% B; 0.5–3.0 min, 15% B; 3.0–3.2 min, 25% B; 3.2–4.0 min, 30% B; 4.0–4.5 min, 32% B; 4.5–6.0 min, 90% B; and 6.0 min, 10% B. The flow rate was set at 0.35 mL/min and the injection volume was 2 μL for the PK study and 1 μL for the tissue distribution study.
The four active components of CA were quantified using multiple reaction monitoring under negative ion mode. The following m/z transitions were chosen for quantification: baishouwu benzophenone 301.00→283.00, deacylmetaplexigenin 379.15→361.20, qingyangshengenin 499.20→137.00, syringic acid 197.20→181.95, and puerarin (internal standard, IS) 415.10→267.05. The collision energy was 15, 15, 35, 15, and 35 V, respectively ([Sun et al., 2022]). ESI mode was operated under the following conditions: capillary voltage, 1 kV; desolvation gas (N2), 1000 L/h; collision gas (Ar2), 150 L/h; desolvation temperature, 400°C; and source temperature, 120°C.
Additionally, stomach and small intestinal tissues were diluted three times to obtain a tissue homogenate. Then, 300 μL of this tissue homogenate was mixed with 30 μL 1% formic acid-water, 20 μL IS, and 1.2 mL acetonitrile. The mixture was then vortexed for 5 min, sonicated for 10 min, and then stored at −20°C for 30 min. Subsequently, the mixture was centrifuged at 14,000 rpm for 10 min. The supernatant obtained was then transferred to another tube and evaporated to dryness at 37°C under nitrogen. The dried residue was reconstituted with 200 μL of the 50% methanol–water, and the centrifugation process was repeated. The obtained supernatant was then used for further analysis.
SD rats were randomly divided into normal and FD groups (n = 30 each) and orally administered 10 mL/kg of CA extract solution. The rats were sacrificed at 10, 30 min, 1, 2, and 4 h after administration (6 rats per time point). Subsequently, their heart, liver, spleen, lung, kidney, brain, small intestine, and stomach were removed. The tissue samples were then washed in saline solution and wiped with filter paper. Subsequently, all tissues were stored at −80°C until analysis.

[4] = high QC (nominal 1666.00 / 3172.53 / 569.17 / 206.21 ng·mL^-1)
[5] = low QC (nominal 52.06 / 49.57 / 8.89 / 1.61 ng·mL^-1)
[6] = medium QC (nominal 208.25 / 396.57 / 71.13 / 25.78 ng·mL^-1)

**Q.** For `COc1cc(C(=O)O)cc(OC)c1O` [Syringic acid], which AUC(0-inf) ([1]; FD group rats) is on record?
**A.** 1170 ± 357 ng·h/mL

**Q.** What about the AUC(0-t) ([1]; FD group rats) of the same molecule?
**A.** 498 ± 109 ng·h/mL

**Q.** What about the CL/F ([1]; FD group rats) of the same molecule?
**A.** 1.83 mL/min/kg

**Q.** And the Cmax ([1]; FD group rats)?
**A.** 67.4 ± 3 ng/mL

**Q.** And the half-life ([1]; FD group rats)?
**A.** 37.7 ± 12.6 h

**Q.** What about the Tmax ([1]; FD group rats) of the same molecule?
**A.** 0.25 ± 0.04 h

**Q.** And the Vd/F ([1]; FD group rats)?
**A.** 5.49 ± 0.69 L/kg

**Q.** What about the AUC(0-inf) ([1]; Normal group rats) of the same molecule?
**A.** 1150 ± 153 ng·h/mL

**Q.** And the AUC(0-t) ([1]; Normal group rats)?
**A.** 523 ± 54.3 ng·h/mL

**Q.** What about the CL/F ([1]; Normal group rats) of the same molecule?
**A.** 1.67 mL/min/kg

**Q.** What about the Cmax ([1]; Normal group rats) of the same molecule?
**A.** 72.2 ± 6.74 ng/mL

**Q.** What about the half-life ([1]; Normal group rats) of the same molecule?
**A.** 34.5 ± 6.73 h

**Q.** What about the Tmax ([1]; Normal group rats) of the same molecule?
**A.** 0.24 ± 0.03 h

**Q.** And the Vd/F ([1]; Normal group rats)?
**A.** 5.07 ± 0.74 L/kg

**Q.** And the “Measured concentration, 4°C for 24 h” value [2, 4]?
**A.** 185.91 ± 1.51 ng/mL

**Q.** What about the “Measured concentration, Room temperature for 24 h” value [2, 4] of the same molecule?
**A.** 196.89 ± 6.85 ng/mL

**Q.** And the “Measured concentration, Three freeze-thaw cycles” value [2, 4]?
**A.** 198.43 ± 6.85 ng/mL

**Q.** And the “Measured concentration, 4°C for 24 h” value [2, 5]?
**A.** 1.47 ± 0.10 ng/mL

**Q.** What about the “Measured concentration, Three freeze-thaw cycles” value [2, 5] of the same molecule?
**A.** 1.42 ± 0.18 ng/mL

**Q.** What about the “Measured concentration, 4°C for 24 h” value [2, 6] of the same molecule?
**A.** 22.75 ± 1.62 ng/mL

**Q.** What about the “Measured concentration, Room temperature for 24 h” value [2, 6] of the same molecule?
**A.** 23.14 ± 1.80 ng/mL

**Q.** What about the “Measured concentration, Three freeze-thaw cycles” value [2, 6] of the same molecule?
**A.** 23.32 ± 1.20 ng/mL

**Q.** And the “detection in the brain” value ([3]; rat brain)?
**A.** not detected

**Q.** What about the “time after dosing at which eliminated in all tissues” value ([3]; rat tissues) of the same molecule?
**A.** 1 h

**Q.** And the “tissue with higher distribution” value ([3]; rats)?
**A.** stomach
